In one series the test system is HIV-1. The experiment in a line: Efficacy, safety and optimal dosage study in previously untreated HIV-1-infected patients versus Efavirenz. To be noted: for development of HIV-1 resistance: patients, at the studied doses; for viral load decrease: week 12; for viral load decrease / viral load change: 20 mg MMSCs of formula Ib, 600 mg Efavirenz; for viral load change: week 24. The method, then:
Doses of 20 mg/day (60 patients) and 40 mg/day (60 patients) of MMSCs of formula Ib were studied versus 600 mg/day of Efavirenz (30 patients).
Doses of 20.7 mg/day (60 patients) and 41.4 mg/day (60 patients) of MMSCs of formula Ib were studied in comparison with Efavirenz (600 mg/day, 30 patients).

The nature of series [1]: Pharmacokinetics in healthy volunteers with repeated weekly administration. It is filed as in vivo, human. The note with it: for Cmax / concentration at 168 h: human, in vivo, oral; for Cmax: read-out: Cmax of active metabolite Ia in the first week; for concentration at 168 h: read-out: concentration of active metabolite Ia a week later (168 hours).
A short description of series [2]: Clinical trial in healthy volunteers, pharmacokinetics with daily administration of capsules. The note with it: constant administration, average.
Method: The concentration-time pattern of metabolite Ia in the blood was evaluated by its content in the plasma and blood cells.

SMILES strings stand for the structures. “Also recorded” adds a separate entry of the source. Where two headings read alike, the source gives them in different places.

For `O=C1Nc2ccc(Cl)cc2[C@@](C#CC2CC2)(C(F)(F)F)O1` [Efavirenz, reference compound], in the series on HIV-1, the “development of HIV-1 resistance” value is “No development of HIV-1 resistance was established; also recorded: has not been established”, the viral load decrease is −2.7±1.0 and the viral load change was −3.3±0.8.

Regarding `N#Cc1cc(Cl)cc(Oc2c(Br)ccc(CC(=O)Nc3ccc(S(N)(=O)=O)cc3Cl)c2F)c1` [Ia], the “time to maximum concentration of active metabolite Ia in the first week” value in series [1] (41.4, 82.8 or 124.2 mg/week, after taking the drug) is on record as “approximately 5.5 hours”. Also, the Cmax in series [1] (41.4 mg/week) came to 34.5 ng/mL; in series [1] (82.8 mg/week), 63.6 ng/mL; in series [1] (124.2 mg/week), 117 ng/mL. For the same molecule, the figures for the concentration at 168 h in series [1] (41.4 mg/week), in series [1] (82.8 mg/week) and in series [1] (124.2 mg/week) were 26.1 ng/mL, 36.9 ng/mL and 57.2 ng/mL, respectively. Also, the results for the “time of dosing to maximum plasma concentration of active metabolite Ia” value in series [2] (10 mg/day), in series [2] (20 mg/day) and in series [2] (30 mg/day) were 9.8 days, 7.5 days and 6.7 days, respectively.

On to `CCC(=O)[N-]S(=O)(=O)c1ccc(NC(=O)Cc2ccc(Br)c(Oc3cc(Cl)cc(C#N)c3)c2F)c(Cl)c1.[Na+]` [MMSCs of formula Ib, sodium {[4-({[4-bromo-3-(3-chloro-5-cyanophenoxy)-2-fluorophenyl]acetyl}amino)-3-chlorophenyl]-sulfonyl}(propanoyl)azanide], for which the “occurrence of a viral load reduction of 10 times and more” value in the series on HIV-1 (20 mg versus Efavirenz 600 mg, p=0.053) is “tendency for a statistical difference”. The “efficacy difference between the MMSCs of formula Ib therapy groups” value in the series on HIV-1 (20 versus 40 mg/day groups, p=0.804) is on record as “did not differ in effectiveness; also recorded: did not differ in efficacy”. The serious adverse events entry in the series with HIV-1 (HIV-1-infected patients) was “No serious adverse events were observed”. In the series on HIV-1 (doses of 20 and 40 mg, over a period of 12 weeks, versus Efavirenz 600 mg/day), the “effectiveness in reducing the viral load to <400 copies/ml” value is “not inferior to Efavirenz”. Also, in the series on HIV-1 (p=0.0237), the “advantage of the 20 mg group over the Efavirenz 600 mg group” value is “statistically significant”. For the same molecule, in the series on HIV-1, the “development of HIV-1 resistance” value was “No development of HIV-1 resistance was established; also recorded: has not been established”, the viral load decrease is on record as −2.8±0.7 and the viral load change is −3.3±0.7. The “frequency of achieving an undetectable HIV-1 RNA level” value with HIV-1 (week 36, versus Efavirenz, p=0.408) was “did not statistically differ; also recorded: did not differ statistically”.

A word on the Cmax: it is the highest concentration seen after dosing.

For the origin of these results see patent US20220096421A1, “Active Ingredient, Pharmaceutical Composition, and Medicinal Product for HIV and AIDS Therapy” (priority 2019, published 2022).
